Results as given in patent US10221163B2 (priority 2015, dated 2019).
Where two headings read alike, the source gives them in different places.

Experiments:
VIM-1 = VIM-1 (Pseudomonas aeruginosa (strain ATCC 15692 / DSM 22644 / CIP 104116 / JCM 14847 / LMG 12228 / 1C / PRS 101 / PAO1), UniProt A0A0F7KYQ8); assay: biochemical; settings: CCF2-FA substrate, 30 pM enzyme, 2 hours at 25° C.
Outline: (§1)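 IC50 values derive from 4-parameter fits of percent inhibition against inhibitor concentration on semi-log axes. Activity was monitored by fluorescence with the CCF2-FA substrate after a 2-hour, 25° C incubation of compound, enzyme and substrate.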

[1] = tested on: Pseudomonas aeruginosa efflux+ (MB9798), IMP-1; format: cell-based; design: Concentration of metallo-β-lactamase inhibitor which restores susceptibility of efflux + (MB9798) strain to imipenem: unit not given here; settings: efflux+ MB9798; imipenem at 2 μg/mL; in the presence of a class A, C, D serine β-lactamase inhibitor closely related to relebactam
Outline: (§2)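 P. aeruginosa PAO1-derived IMP-1 strains, efflux+ MB9798 and efflux− MB9799, tested by standard microbroth MIC with imipenem and/or ceftazidime fixed, usually at CLSI breakpoint, plus fixed class A/C β-lactamase inhibitor against AmpC. Inhibitor titrated; concentration restoring susceptibility recorded; MB9798/MB9799 fold difference indicates efflux.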

IMP-1 = IMP-1 (Serratia marcescens, UniProt P52699); assay: biochemical; format: biochemical; settings: fluorescence assay, CCF2-FA substrate, 2 pM enzyme, 2 hours at 25° C.; read-out: IMP-1 IC50
Outline: as §1

NDM-1 = NDM-1 (Klebsiella pneumoniae, UniProt C7C422); assay: biochemical; format: biochemical; settings: fluorescence assay, CCF2-FA substrate, 1 pM enzyme, 2 hours at 25° C.; read-out: NDM-1 IC50
Outline: as §1

[2] = tested on: Pseudomonas aeruginosa MB9798 vs MB9799; settings: fold difference between efflux+ (MB9798) and efflux− (MB9799) strains; imipenem at 2 μg/mL
Outline: as §2

[3] = tested on: Klebsiella pneumoniae expressing VIM-1 (IHMA599644); format: cell-based; settings: VIM-1 strain IHMA599644, with imipenem 1 μg/ml, 95% inhibition of growth
Outline: (§3)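 Colonies grown overnight on blood agar at 35° C were suspended in saline, diluted 1:100 into 1.1×CAMHB and dispensed. Imipenem was added to 1 μg/ml, then test compound. After 22 hours to 24 hours at 35° C, absorbance was recorded.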

[4] = tested on: Escherichia coli expressing NDM-1 (CLB30005, CLB30016); format: cell-based; settings: NDM-1 strain, with imipenem 1 μg/ml, 95% inhibition of growth
Outline: as §3

[5] = tested on: Serratia marcescens expressing IMP-1 (CL5741); format: cell-based; settings: IMP-1 strain CL5741, with imipenem 1 μg/ml, 95% inhibition of growth
Outline: as §3

[6] = tested on: Pseudomonas aeruginosa efflux− (MB9799), IMP-1; format: cell-based; settings: efflux− MB9799; imipenem at 2 μg/mL; in the presence of a class A, C, D serine β-lactamase inhibitor closely related to relebactam
Outline: as §2

[7] = fluorescence assay, read-out: VIM-1 IC50

NDM-1, sequence (C7C422 whole entry, looked up, species assumed): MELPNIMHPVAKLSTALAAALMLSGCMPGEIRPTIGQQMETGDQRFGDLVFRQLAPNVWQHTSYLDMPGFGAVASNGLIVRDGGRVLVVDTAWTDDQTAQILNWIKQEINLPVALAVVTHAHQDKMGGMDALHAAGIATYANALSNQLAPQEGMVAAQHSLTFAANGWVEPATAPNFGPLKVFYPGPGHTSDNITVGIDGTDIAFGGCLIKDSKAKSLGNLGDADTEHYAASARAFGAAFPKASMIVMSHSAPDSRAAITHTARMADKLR
IMP-1, sequence (P52699 whole entry, looked up, species assumed): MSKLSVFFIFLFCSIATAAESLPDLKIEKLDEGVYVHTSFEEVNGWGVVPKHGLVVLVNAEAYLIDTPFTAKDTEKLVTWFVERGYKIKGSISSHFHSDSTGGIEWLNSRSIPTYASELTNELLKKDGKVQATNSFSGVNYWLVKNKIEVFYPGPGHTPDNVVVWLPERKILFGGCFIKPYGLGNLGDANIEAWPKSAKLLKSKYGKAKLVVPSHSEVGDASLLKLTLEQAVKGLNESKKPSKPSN

| SMILES | IC50 (VIM-1; [7]) [nM] | Concentration of metallo-β-lactamase inhibitor which restores susceptibility of efflux + (MB9798) strain to imipenem [1] | IC50 (IMP-1) [nM] | IC50 (NDM-1) [nM] | Efflux ratio [2] | Klebsiella pneumoniae MITC95 [3] [µM] | Escherichia coli MITC95 [4] [µM] | Serratia marcescens MITC95 [5] [µM] | Concentration of metallo-β-lactamase inhibitor which restores susceptibility of efflux − (MB9799) strain to imipenem [6] | IC50 (VIM-1; VIM-1 IC50, fluorescence assay) [nM] | IC50 (VIM-1; read-out: VIM-1 IC50, fluorescence assay) [nM] |
| --- | --- | --- | --- | --- | --- | --- | --- | --- | --- | --- | --- |
| NCc1nc2cc(-c3ccc(S(=O)(=O)NC[C@@H](O)CN)c(S(N)(=O)=O)c3-c3nn[nH]n3)ccc2s1 [Example 473, (S)-N1-(3-amino-2-hydroxypropyl)-4-(2-(aminomethyl)benzo[d]thiazol-5-yl)-3-(2H-tetrazol-5-yl)benzene-1,2-disulfonamide] | 0.109 | 0.7813 | 0.329 | 0.136 | 1.00 | 1.563 | 0.7813 | 1.563 | 0.7813 | – | – |
| NCc1nc2cc(-c3ccc(S(=O)(=O)N[C@@H](CN)CO)c(S(N)(=O)=O)c3-c3nn[nH]n3)ccc2[nH]1 [Example 474, (S)-N1-(1-amino-3-hydroxypropan-2-yl)-4-(2-(aminomethyl)-1H-benzo[d]imidazol-5-yl)-3-(2H-tetrazol-5-yl)benzene-1,2-disulfonamide] | 0.141 | 0.7813 | 0.522 | 0.104 | 1.00 | 1.563 | 0.7813 | 1.563 | 0.7813 | – | – |
| NCc1nc2cc(-c3ccc(S(=O)(=O)N[C@@H](CN)CO)c(S(N)(=O)=O)c3-c3nn[nH]n3)ccc2s1 [Example 475, (S)-N1-(1-amino-3-hydroxypropan-2-yl)-4-(2-(aminomethyl)benzo[d]thiazol-5-yl)-3-(2H-tetrazol-5-yl)benzene-1,2-disulfonamide] | 0.0869 | 0.7813 | 0.13 | 0.0604 | 1.00 | 1.563 | 0.7813 | 1.563 | 0.7813 | – | – |
| NCCNS(=O)(=O)c1ccc(-c2ccc3sc(CN)nc3c2)c(-c2nn[nH]n2)c1S(N)(=O)=O [Example 476, N1-(2-aminoethyl)-4-(2-(aminomethyl)benzo[d]thiazol-5-yl)-3-(2H-tetrazol-5-yl)benzene-1,2-disulfonamide] | 0.121 | 0.7813 | 0.281 | 0.27 | 1.00 | 1.563 | 1.563 | 0.7813 | 0.7813 | – | – |
| Cc1cc(-c2ccc(S(=O)(=O)NC[C@H](O)CN)c(S(N)(=O)=O)c2-c2nn[nH]n2)cnc1N [Example 477, (R)—N1-(3-amino-2-hydroxypropyl)-4-(6-amino-5-methylpyridin-3-yl)-3-(2H-tetrazol-5-yl)benzene-1,2-disulfonamide] | 0.132 | 1.563 | 0.842 | 0.28 | 2.00 | 1.563 | 0.1953 | 0.7813 | 0.7813 | – | – |
| NC[C@@H](O)CNS(=O)(=O)c1ccc(-c2cnc(N)c(F)c2)c(-c2nn[nH]n2)c1S(N)(=O)=O [Example 478, (R)-N1-(3-amino-2-hydroxypropyl)-4-(6-amino-5-fluoropyridin-3-yl)-3-(2H-tetrazol-5-yl)benzene-1,2-disulfonamide] | – | 0.7813 | 0.677 | 0.159 | 1.00 | 3.125 | 1.563 | 1.563 | 0.7813 | 0.0914 | – |
| C[C@H](N)CNS(=O)(=O)c1ccc(-c2ccc(N)nc2)c(-c2nn[nH]n2)c1S(N)(=O)=O [Example 479, (S)—N1-(2-aminopropyl)-4-(6-aminopyridin-3-yl)-3-(2H-tetrazol-5-yl) benzene-1,2-disulfonamide] | 0.299 | 0.7813 | 0.664 | 0.224 | 1.00 | 1.563 | 0.1953 | 0.7813 | 0.7813 | – | – |
| C[C@@H](N)CNS(=O)(=O)c1ccc(-c2ccc(N)nc2)c(-c2nn[nH]n2)c1S(N)(=O)=O [Example 480, (R)—N1-(2-aminopropyl)-4-(6-aminopyridin-3-yl)-3-(2H-tetrazol-5-yl) benzene-1,2-disulfonamide] | 0.249 | 0.7813 | 0.32 | 0.227 | 1.00 | 1.563 | 0.1953 | 0.3906 | 0.7813 | – | – |
| NS(=O)(=O)c1c(S(=O)(=O)NC[C@H]2CNCCN2)ccc(-c2cccc3[nH]cnc23)c1-c1nn[nH]n1 [Example 481, (R)-4-(1H-benzo[d]imidazol-4-yl)-N1-(piperazin-2-ylmethyl)-3-(1H-tetrazol-5-yl)benzene-1,2-disulfonamide] | 0.119 | 1.563 | 0.251 | 0.0455 | 1.00 | 3.125 | 3.125 | 1.563 | 1.563 | – | – |
| NCCNCCNS(=O)(=O)c1ccc(-c2ccc(N)nc2)c(-c2nn[nH]n2)c1S(N)(=O)=O [Example 482, N1-(2-(-2-amineoethylamino)ethyl)-4-(6-aminopyridin-3-yl)-3-(2H-tetrazol-5-yl)benzene-1,2-disulfonamide] | – | 1.563 | 1.14 | 0.537 | 2.00 | 1.563 | 0.1953 | 0.7813 | 0.7813 | 0.333 | – |
| Nc1ccc(-c2ccc(S(=O)(=O)NC3CC(N)C3)c(S(N)(=O)=O)c2-c2nn[nH]n2)cn1 [Example 483, N1-((1R,3R)-3-aminocyclobutyl)-4-(6-aminopyridin-3-yl)-3-(2H-tetrazol-5-yl)benzene-1,2-disulfonamide] | – | 0.7813 | 0.33 | 0.0927 | 1.00 | 1.563 | 1.758 | 0.7813 | 0.7813 | – | 0.115 |
| Nc1ccc(-c2ccc(S(=O)(=O)NC[C@H]3CCNC3)c(S(N)(=O)=O)c2-c2nn[nH]n2)cn1 [Example 484, (S)-4-(6-aminopyridin-3-yl)-N1-(pyrrolidin-3-ylmethyl)-3-(2H-tetrazol-5-yl)benzene-1,2-disulfonamide] | 0.131 | 0.7813 | 0.248 | 0.102 | 1.00 | 3.125 | 0.1953 | 0.3906 | 0.7813 | – | – |
